Results published in paper PMC10054418, “Eighteen Novel Bioactive Peptides from Monkfish (Lophius litulon) Swim Bladders: Production, Identification, Antioxidant Activity, and Stability” (Marine Drugs, 2023).
Like-named read-outs stand apart in the source and are kept apart here. Where a SMILES comes first, the peptide text is derived from it.

Legend:
[1] = cited from earlier work
Excerpt: HO· is a kind of strong free radical, which can not only cause lipid peroxidation in vivo but also attack polysaccharides, nucleic acids and other macromolecules, causing serious damage to cells.

[2] = cited from earlier work; remark: listed apart in the source
Excerpt: DPPH· is a very stable radical and is commonly used as a substrate to assess antioxidant activity. MSP7 and MSP8 have a strong hydrogen donating capacity and can reduce stable DPPH·.

[3] = cited from earlier work; remark: listed apart in the source
Excerpt: ABTS^+· is a single oxygen ion radical with an absorption peak at 734 nm, which can be reduced by antioxidants leading to a decrease in absorbance.

H2O2-damaged HepG2 cells = test: Cytoprotection on H2O2-damaged HepG2 cells (MTT); type: cell-based, Human
Description: […] Briefly, the HepG2 cells were incubated in a 96-well plate for 24 h. […] After removing peptides, H2O2 was added to the sample, GSH and model groups. After 24 h, the 96-wells were rinsed twice with PBS and used MTT method to determine the cell viability:Cell viability = (ODsample/ODcontrol) × 100%.

[4] = cited from earlier work; remark: listed apart in the source
Excerpt: O2−· reacts with metal ions in the Fenton reaction to form HO· that triggers lipid peroxidation and causes oxidative damage to cells. MSP1, MSP2, MSP8, MSP10 and MSP13 have a strong ability to scavenge O2−· .

pepsin and trypsin = test: Stability in simulated gastrointestinal (GI) digestion, read out as O2−· scavenging activity; details: 2 h of pepsin digestion, peptide 5.0 mg/mL
Description: The reaction was initiated by adding 1 mL of phenazine methosulphate (PMS) solution (120 μM) to the reaction mixture. The absorbance was measured at 560 nm against the corresponding blank after incubation for 5 min at 25 °C. The scavenging capacity of the O2−· was calculated using the following equation: O2−·scavengingactivity(%)=[(Ac−As)/Ac]×100%, where Ac is the absorbance without the sample and As is the absorbance with the sample.

[5] = APs from Spanish mackerel (Scomberomorous niphonius) skin
[6] = APs from skin (printed after monkfish muscle)
[7] = APs from seaweed (Eucheuma cottonii)
[8] = APs from Antarctic krill (Euphausia superba)
[9] = APs from tuna cardiac arterial bulbs
[10] = APs from tuna (Katsuwonus pelamis) cardiac arterial bulbs

In the case of “VGGRP [literature AP from grass carp (Ctenopharyngodon idella) skin]”, the “EC50 on HO·” value ([1]; AP from grass carp (Ctenopharyngodon idella) skin) is listed as 2060 µg/mL.
In the case of “PYFK [literature AP from scalloped hammerhead sharks (Sphyrna lewini) muscle]”, the “EC50 on DPPH·” value ([2]; APs from scalloped hammerhead sharks (Sphyrna lewini) muscle) is listed as 4110 µg/mL and the “EC50 on ABTS^+·” value ([3]; APs from scalloped hammerhead sharks muscle) is listed as 120 µg/mL.
For “GPTGE [literature AP from Spanish mackerel (Scomberomorous niphonius) skin]”, the “EC50 on DPPH·” value [2, 5] is listed as 1420 µg/mL.
For “GHHAAA [literature AP from tuna milt (also printed under tuna roes)]”, the “EC50 on ABTS^+·” value ([3]; APs from tuna milt) is listed as 1120 µg/mL.
With `N[C@@H](Cc1ccc(O)cc1)C(=O)N[C@@H](CC(=O)O)C(=O)N[C@@H](Cc1ccc(O)cc1)C(=O)N[C@@H](CC(=O)O)C(=O)O` [MSP1, Tyr-Asp-Tyr-Asp] (H-YDYD-OH) the “viability of H2O2-injured HepG2 cells” value (H2O2-damaged HepG2 cells; peptide at 200 μmol/L, 8 h pre-incubation, then H2O2 (300 µM) 24 h, MTT, mean ± SD of triplicate, model group 51.08 ± 1.97%) was 82.14 ± 3.28%.
In the case of “YWDAW [literature AP from monkfish muscle]”, the “EC50 on O2−·” value ([4]; APs from monkfish muscle) is given as 480 µg/mL, the “EC50 on DPPH·” value ([2]; APs from monkfish muscle) is given as 510 µg/mL and the “EC50 on HO·” value ([1]; APs from monkfish muscle) is given as 320 µg/mL.
For “PYGAKG [literature AP from Spanish mackerel (Scomberomorous niphonius) skin]”, the “EC50 on DPPH·” value [2, 5] is given as 3020 µg/mL.
In the case of `C[C@H](N)C(=O)N[C@@H](CCCNC(=N)N)C(=O)N[C@@H](Cc1c[nH]c2ccccc12)C(=O)O` [MSP8, Ala-Arg-Trp] (H-Ala-Arg-Trp-OH), the “viability of H2O2-injured HepG2 cells” value (H2O2-damaged HepG2 cells; 8 h, 200 μmol/L) is reported as 81.32 ± 2.45% and the “Declined percentage of O2−· scavenging activity, Treated with Pepsin” value (from here on “Declined percentage”) (pepsin and trypsin) is reported as −24.93%.
In the case of “YGPM [literature AP from Spanish mackerel skin]”, the “EC50 on O2−·” value [4, 6] is listed as 730 µg/mL, the “EC50 on DPPH·” value [2, 5] is listed as 720 µg/mL and the “EC50 on ABTS^+·” value ([3]; APs from monkfish skin as printed) is listed as 820 µg/mL. For the same molecule, the “EC50 on HO·” value [1, 6] was 880 µg/mL.
For “FYKA [literature AP from seaweed (Eucheuma cottonii)]”, the “EC50 on O2−·” value ([4]; APs from seaweed) is listed as 1910 µg/mL and the “EC50 on DPPH·” value [2, 7] is listed as 2560 µg/mL.
In the case of “IEEEQ [literature AP from red stingray (Dasyatis akajei) cartilages]”, the “EC50 on ABTS^+·” value ([3]; APs from red stingray (Dasyatis akajei) cartilages) is listed as 180 µg/mL.
For “YSKT [literature AP from seaweed (Eucheuma cottonii)]”, the “EC50 on DPPH·” value [2, 7] is given as 1710 µg/mL.
In the case of `N=C(N)NCCC[C@H](NC(=O)CN)C(=O)N[C@@H](Cc1c[nH]c2ccccc12)C(=O)O` [MSP7, Gly-Arg-Trp] (H-Gly-Arg-Trp-OH), the “Declined percentage” value (pepsin and trypsin) is reported as −24.34%.
In the case of “IDSQ [literature AP from Antarctic krill (Euphausia superba)]”, the “EC50 on O2−·” value ([4]; APs from Antarctic krill) is listed as 1450 µg/mL and the “EC50 on HO·” value [1, 8] is listed as 2570 µg/mL.
With `NCCCC[C@H](NC(=O)CNC(=O)CNC(=O)[C@H](CC(=O)O)NC(=O)[C@@H](N)CC(=O)O)C(=O)O` [MSP10, Asp-Asp-Gly-Gly-Lys] (H-DDGGK-OH) the “Declined percentage” value (pepsin and trypsin) was −21.98%.
In the case of “GEQSN [literature AP from tuna (Katsuwonus pelamis) cardiac arterial bulbs]”, the “EC50 on O2−·” value [4, 9] is given as 1857 µg/mL and the “EC50 on DPPH·” value [2, 10] is given as 2054 µg/mL.
For “GEGQR [literature AP from tuna (Katsuwonus pelamis) cardiac arterial bulbs]”, the “EC50 on O2−·” value [4, 9] is listed as 2143 µg/mL, the “EC50 on DPPH·” value [2, 10] is listed as 2257 µg/mL and the “EC50 on ABTS^+·” value [3, 9] is listed as 1218 µg/mL.
For “EDIVCW [literature AP from monkfish muscle]”, the “EC50 on O2−·” value ([4]; APs from monkfish muscle) is given as 760 µg/mL, the “EC50 on DPPH·” value ([2]; APs from monkfish muscle) is given as 390 µg/mL and the “EC50 on HO·” value ([1]; APs from monkfish muscle) is given as 610 µg/mL.
For `NC(=O)CC[C@H](N)C(=O)N[C@@H](CC(=O)O)C(=O)N[C@@H](Cc1ccc(O)cc1)C(=O)N[C@@H](CC(=O)O)C(=O)O` [MSP2, Gln-Asp-Tyr-Asp] (H-QDYD-OH), the “Declined percentage” value (pepsin and trypsin) was −15.13%.
For “SMDV [literature AP from tuna milt (also printed under tuna roes)]”, the “EC50 on ABTS^+·” value ([3]; APs from tuna milt) is given as 1160 µg/mL.
In the case of “VEKT [literature AP from Antarctic krill (Euphausia superba)]”, the “EC50 on O2−·” value ([4]; APs from Antarctic krill) is given as 860 µg/mL and the “EC50 on HO·” value [1, 8] is given as 1530 µg/mL.
For “PSYV [literature AP from loach (Misgurnus anguillicaudatus) meat]”, the “EC50 on HO·” value ([1]; AP from loach (Misgurnus anguillicaudatus) meat) is given as 2640 µg/mL.
